{
  "source": "PubChem BioAssay AID489004",
  "about": "(Sanford-Burnham Center for Chemical Genomics, 2010)",
  "tested_on": "Jurkat NF-kB luciferase reporter, PMA/ionomycin, luminescence 16 h",
  "assay": "blockers of NF-kB activation in T cells – Jurkat, luciferase reporter, luminescence, B- and T-cell, dose response (AID 489004)",
  "note": "pIC50: −log10 of the molar value.",
  "data": [
    {"compound": "CC(=O)OC[C@]12CCC(C)=C[C@H]1O[C@@H]1[C@H](O)[C@@H](OC(C)=O)[C@@]2(C)[C@]12CO2", "values": [
      {"measurement": "pIC50", "result": "> 6.80"}
    ]}
  ]
}
